From the NIST ThermoML archive (doi:10.1016/j.jct.2012.03.025)
Numbers after ± are expanded uncertainties.

Assay: mn = molality of the nth substance listed, in mol/kg
Details: 101 kPa, Liquid; for speed of sound: Sing-around technique in a fixed-path interferometer; for mass density: Vibrating tube method

CCCCn1cc[n+](C)c1.F[B-](F)(F)F [1-butyl-3-methylimidazolium tetrafluoroborate] + O
Details | mass density, 288.15 K [kg/m3] | mass density, 293.15 K [kg/m3] | mass density, 298.15 K [kg/m3] | mass density, 303.15 K [kg/m3] | mass density, 308.15 K [kg/m3] | speed of sound, 288.15 K [m/s] | speed of sound, 293.15 K [m/s] | speed of sound, 298.15 K [m/s] | speed of sound, 303.15 K [m/s] | speed of sound, 308.15 K [m/s]
m1 = 0.0514 | 1001.13 ± 0.057 | 1000.19 ± 0.057 | 998.93 ± 0.056 | 997.535 ± 0.057 | 995.822 ± 0.057 | 1471.9 ± 0.77 | 1487.3 ± 0.78 | 1500.9 ± 0.78 | 1512.8 ± 0.78 | 1523 ± 0.78
m1 = 0.1056 | 1003.19 ± 0.06 | 1002.21 ± 0.059 | 1000.85 ± 0.058 | 999.439 ± 0.058 | 997.645 ± 0.058 | 1476.9 ± 0.78 | 1492 ± 0.79 | 1505 ± 0.79 | 1516.2 ± 0.79 | 1526 ± 0.8
m1 = 0.1559 | 1005.1 ± 0.063 | 1004.06 ± 0.062 | 1002.6 ± 0.061 | 1001.17 ± 0.061 | 999.334 ± 0.06 | 1481.5 ± 0.79 | 1495.9 ± 0.8 | 1508.5 ± 0.8 | 1519.5 ± 0.8 | 1528.8 ± 0.81
m1 = 0.201 | 1006.76 ± 0.066 | 1005.67 ± 0.065 | 1004.18 ± 0.064 | 1002.7 ± 0.064 | 1000.82 ± 0.063 | 1485.3 ± 0.81 | 1499.3 ± 0.81 | 1511.3 ± 0.81 | 1522.1 ± 0.81 | 1531.1 ± 0.82
m1 = 0.2573 | 1008.83 ± 0.07 | 1007.69 ± 0.07 | 1006.13 ± 0.069 | 1004.58 ± 0.068 | 1002.65 ± 0.067 | 1490 ± 0.82 | 1503.4 ± 0.82 | 1515 ± 0.83 | 1525.2 ± 0.83 | 1533.7 ± 0.83
m1 = 0.3001 | 1010.36 ± 0.073 | 1009.21 ± 0.073 | 1007.59 ± 0.072 | 1005.98 ± 0.071 | 1004.05 ± 0.07 | 1493.2 ± 0.83 | 1506.2 ± 0.84 | 1517.5 ± 0.84 | 1527.3 ± 0.84 | 1535.6 ± 0.84
m1 = 0.3504 | 1012.17 ± 0.078 | 1010.97 ± 0.077 | 1009.26 ± 0.076 | 1007.63 ± 0.075 | 1005.66 ± 0.075 | 1496.9 ± 0.85 | 1509.5 ± 0.85 | 1520.4 ± 0.85 | 1529.8 ± 0.85 | 1537.7 ± 0.86
m1 = 0.4093 | 1014.26 ± 0.083 | 1012.98 ± 0.083 | 1011.22 ± 0.082 | 1009.47 ± 0.081 | 1007.54 ± 0.08 | 1501.1 ± 0.86 | 1513.2 ± 0.87 | 1523.6 ± 0.87 | 1532.6 ± 0.87 | 1540.1 ± 0.87
m1 = 0.4506 | 1015.7 ± 0.088 | 1014.4 ± 0.087 | 1012.58 ± 0.086 | 1010.78 ± 0.085 | 1008.78 ± 0.084 | 1504 ± 0.87 | 1515.6 ± 0.88 | 1525.8 ± 0.88 | 1534.5 ± 0.88 | 1541.7 ± 0.88
m1 = 0.508 | 1017.7 ± 0.094 | 1016.36 ± 0.092 | 1014.5 ± 0.092 | 1012.56 ± 0.091 | 1010.59 ± 0.09 | 1507.4 ± 0.89 | 1519 ± 0.89 | 1528.5 ± 0.9 | 1536.8 ± 0.9 | 1543.7 ± 0.9

CC(=O)[O-].CCCCn1cc[n+](C)c1 [1-butyl-3-methylimidazolium acetate] + O
Details | mass density, 288.15 K [kg/m3] | mass density, 293.15 K [kg/m3] | mass density, 298.15 K [kg/m3] | mass density, 303.15 K [kg/m3] | mass density, 308.15 K [kg/m3] | speed of sound, 288.15 K [m/s] | speed of sound, 293.15 K [m/s] | speed of sound, 298.15 K [m/s] | speed of sound, 303.15 K [m/s] | speed of sound, 308.15 K [m/s]
m1 = 0.0534 | 999.93 ± 0.11 | 999 ± 0.11 | 997.824 ± 0.11 | 996.406 ± 0.11 | 994.772 ± 0.11 | 1476.3 ± 0.78 | 1492 ± 0.78 | 1505.6 ± 0.79 | 1517.5 ± 0.79 | 1527.3 ± 0.79
m1 = 0.104 | 1000.71 ± 0.11 | 999.755 ± 0.11 | 998.548 ± 0.11 | 997.105 ± 0.11 | 995.451 ± 0.11 | 1485.4 ± 0.8 | 1500.6 ± 0.8 | 1513.6 ± 0.8 | 1525.2 ± 0.81 | 1534.3 ± 0.81
m1 = 0.1535 | 1001.45 ± 0.11 | 1000.47 ± 0.11 | 999.237 ± 0.11 | 997.775 ± 0.11 | 996.101 ± 0.11 | 1494.2 ± 0.82 | 1508.8 ± 0.82 | 1521.3 ± 0.82 | 1532.3 ± 0.83 | 1541 ± 0.83
m1 = 0.209 | 1002.31 ± 0.12 | 1001.29 ± 0.12 | 1000.03 ± 0.12 | 998.535 ± 0.12 | 996.836 ± 0.12 | 1504 ± 0.84 | 1517.9 ± 0.85 | 1529.8 ± 0.85 | 1540 ± 0.85 | 1548.3 ± 0.85
m1 = 0.2498 | 1002.95 ± 0.12 | 1001.91 ± 0.12 | 1000.62 ± 0.12 | 999.11 ± 0.12 | 997.391 ± 0.12 | 1511 ± 0.86 | 1524.4 ± 0.87 | 1535.9 ± 0.87 | 1545.7 ± 0.87 | 1553.8 ± 0.87
m1 = 0.2997 | 1003.66 ± 0.12 | 1002.59 ± 0.12 | 1001.27 ± 0.12 | 999.737 ± 0.12 | 997.998 ± 0.12 | 1519.5 ± 0.89 | 1532 ± 0.89 | 1543 ± 0.89 | 1552.5 ± 0.89 | 1560.3 ± 0.9
m1 = 0.35 | 1004.51 ± 0.13 | 1003.4 ± 0.13 | 1002.05 ± 0.13 | 1000.49 ± 0.13 | 998.725 ± 0.13 | 1528.1 ± 0.91 | 1540 ± 0.91 | 1550 ± 0.92 | 1559 ± 0.92 | 1566.8 ± 0.92
m1 = 0.4035 | 1005.33 ± 0.13 | 1004.19 ± 0.13 | 1002.81 ± 0.13 | 1001.22 ± 0.13 | 999.427 ± 0.13 | 1536.9 ± 0.94 | 1548 ± 0.94 | 1557.6 ± 0.94 | 1566 ± 0.95 | 1573.3 ± 0.95
m1 = 0.457 | 1006.2 ± 0.14 | 1005.02 ± 0.14 | 1003.61 ± 0.14 | 1001.98 ± 0.14 | 1000.17 ± 0.14 | 1545.8 ± 0.97 | 1556 ± 0.97 | 1564.8 ± 0.97 | 1572.9 ± 0.97 | 1579.9 ± 0.98
m1 = 0.5036 | 1006.93 ± 0.15 | 1005.72 ± 0.14 | 1004.28 ± 0.14 | 1002.63 ± 0.14 | 1000.79 ± 0.14 | 1553.4 ± 0.99 | 1562.8 ± 1 | 1571 ± 1 | 1578.5 ± 1 | 1585.6 ± 1
